Data published in article PMC5896570 (SLAS discovery : advancing life sciences R & D, 2016).
Values joined by “and” are separate entries in the source; they are usually repeats but may differ in a detail not shown here. Equal values may be shown once. Read-outs that look alike come from different tables or passages of the source.

Key:
full-length human A2AR [1] = molecular target: T1, full-length human A2AR (Homo sapiens, UniProt P29274); type: binding; conditions: for receptor-ligand complexes formed at equilibrium: saturation
full-length human A2AR [2] = molecular target: T1, full-length human A2AR; type: binding; conditions: mean ± SEM, n=16; for Kd: read-out: Kinetic KD
[3] = analytical solution, fixed α 5.6%
[4] = numerical solution, fixed KD 22 nM

T1 sequence (P29274 whole entry): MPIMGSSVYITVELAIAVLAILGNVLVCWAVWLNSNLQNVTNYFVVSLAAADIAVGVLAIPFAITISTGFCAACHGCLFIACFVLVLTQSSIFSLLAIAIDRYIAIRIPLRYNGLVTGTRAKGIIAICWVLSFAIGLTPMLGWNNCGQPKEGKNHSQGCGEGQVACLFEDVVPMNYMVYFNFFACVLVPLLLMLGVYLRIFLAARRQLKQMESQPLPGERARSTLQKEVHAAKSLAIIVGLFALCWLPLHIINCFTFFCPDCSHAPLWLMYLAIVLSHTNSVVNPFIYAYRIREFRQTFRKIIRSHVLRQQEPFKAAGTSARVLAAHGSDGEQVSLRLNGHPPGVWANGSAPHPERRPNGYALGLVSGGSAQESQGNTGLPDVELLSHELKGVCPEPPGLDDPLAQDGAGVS

Compound: CCNC(=O)[C@H]1O[C@@H](n2cnc3c(N)nc(NCCc4ccc(CCC(=O)NCCNC(=S)Nc5ccc6c(c5)C(=O)OC6(c5ccc(O)cc5)c5ccc(O)cc5)cc4)nc32)[C@H](O)[C@@H]1O [FITC-APEC, 2-[2-[4-[2-[2-[1,3-Dihydro-1,1-bis (4-hydroxyphenyl)-3-oxo-5-isobenzofuranthioureidyl]ethylaminocarbonyl]ethyl]phenyl]ethylamino]-5′--ethylcarboxamidoadenosine]
- Bmax (full-length human A2AR [1]; equilibrium, Scatchard analysis, ± SEM, n=5): ~ 5.6 % of RT and 5.6 ± 0.4 % of RT
- receptor-ligand complexes formed at equilibrium (full-length human A2AR [1]; receptor concentration 160 nM): 9 nM
- receptor-ligand complexes formed at equilibrium (full-length human A2AR [1]; receptor concentration 480 nM): 25 nM
- Residence time (full-length human A2AR [2]; [3]): 22 ± 1.5 min
- koff (full-length human A2AR [2]; [3]): 7.7 ± 0.5 x10^−4 s^−1
- kon (full-length human A2AR [2]; [3]): 1.5 ± 0.2 x10^4 (M s)^−1
- Residence time (full-length human A2AR [2]; [4]): 47 ± 3.8 min
- koff (full-length human A2AR [2]; [4]): 3.6 ± 0.3 x10^−4 s^−1
- α (Bmax/RT) (full-length human A2AR [2]; [4]): 6.8 ± 1.1%
- Kd (full-length human A2AR [2]; [3]): 0.073 ± 0.015 µM
- Kd (full-length human A2AR [2]; [4]): 0.022 ± 0.0023 µM
